Laboratory results: patent publication US4742049A, “Semisynthetic erythromycin antibiotics” (Abbott Laboratories, priority 1986, dated 1988)
In brackets after ≈: the same amount, converted by molar mass. Several values for one entry are separate records, joined by “and”; a condition that tells them apart may be missing. Equal values may be shown once. Read-outs that look alike come from different tables or passages of the source.

Columns and labels:
Ent. aerogenes = assay: antimicrobial spectrum, agar dilution MIC; type: cell-based
Micrococcus luteus = assay: antimicrobial spectrum, agar dilution MIC; type: cell-based; settings: strain 4698, BHI agar, 20-24 hours
Strep. faecalis = assay: antimicrobial spectrum, agar dilution MIC; type: cell-based; settings: Enterococcus faecalis, BHI agar, 20-24 hours
Description: (§1) Twelve petri dishes containing successive aqueous dilutions of the test compound mixed with 10 ml of sterilized Brain Heart Infusion agar (Difco 0418-01-5) are prepared. Each plate is inoculated with 1:100 (or 1:10 for slow-growing strains, primarily Micrococcus and Streptococcus) dilutions of up to 32 different microorganisms, using a Steers replicator block. The inoculated plates are incubated at 35°-37° C. for 20-24 hours. In addition, a control plate, using BHI agar containing no test compound, is prepared and incubated at the beginning and end of each test.
(§2) An additional plate containing a compound having known susceptibility patterns for the organisms being tested and belonging to the same antibiotic class as the test compound is also prepared and incubated as a further control, as well as to provide test-to-test comparability.
(§3) After incubation, each disk is read. The MIC is defined as the lowest concentration of drug yielding no growth, a slight haze, or sparsely isolated colonies on the inoculum spot as compared to the growth control.

Providencia stuartii = assay: antimicrobial spectrum, agar dilution MIC; type: cell-based; settings: strain CMX 640, BHI agar, 20-24 hours
Description: as §1, §2, §3

Staph. aureus = assay: antimicrobial spectrum, agar dilution MIC; type: cell-based; settings: Staphylococcus aureus, BHI agar, 20-24 hours
Description: as §1, §2, §3

Strep. pyogenes = assay: antimicrobial spectrum, agar dilution MIC; type: cell-based; settings: BHI agar, 20-24 hours
Description: as §1, §2, §3

Pseudomonas aeruginosa = assay: antimicrobial spectrum, agar dilution MIC; type: cell-based; settings: BHI agar, 20-24 hours
Description: as §1, §2, §3

Strep. faecium = assay: antimicrobial spectrum, agar dilution MIC; type: cell-based; settings: Enterococcus faecium, BHI agar, 20-24 hours
Description: as §1, §2, §3

Strep. bovis = assay: antimicrobial spectrum, agar dilution MIC; type: cell-based; settings: Streptococcus equinus, strain A5169; BHI agar, 20-24 hours; read-out: MIC
Description: as §1, §2, §3

Strep. agalactiae = assay: antimicrobial spectrum, agar dilution MIC; type: cell-based; settings: Streptococcus agalactiae; strain CMX 633; BHI agar, 20-24 hours; read-out: MIC
Description: as §1, §2, §3

Staph. epidermidis = assay: antimicrobial spectrum, agar dilution MIC; type: cell-based; settings: Staphylococcus epidermidis, BHI agar, 20-24 hours
Description: as §1, §2, §3

Strep. pneumoniae = assay: antimicrobial spectrum, agar dilution MIC; type: cell-based; settings: Streptococcus pneumoniae, BHI agar, 20-24 hours
Description: as §1, §2, §3

Klebsiella pneumoniae = assay: antimicrobial spectrum, agar dilution MIC; type: cell-based; settings: strain 8045, BHI agar, 20-24 hours
Staph. saprophyticus = assay: microbe, parasite or virus in culture; settings: Staphylococcus saprophyticus, ATCC15305
Description: as §1, §2, §3

Staph. aureus NCTC 10649 = assay: acute mouse protection test; settings: for ED50: Staphylococcus aureus, NCTC10649, in Mus musculus, 168 h, dosed 1 and 5 hours post-infection, observed 7 days; for # Died: ten mice
Description: The acute mouse protection test is conducted on ten mice with each of three levels of drug.
The acute mouse protection test is conducted on female, Swiss albino mice, 18-20 grams in weight. The mice are injected intraperitoneally with an 18-hour culture of the indicated test organism diluted sufficiently to provide the desired LD50 value. To check the potency of the inoculum, a titration of the indicated test organism is carried out in control animals. […] The ED50 values are calculated using the mortality data collected.

Pseudomonas cepacia = assay: antimicrobial spectrum, agar dilution MIC; type: cell-based; settings: strain 2961, BHI agar, 20-24 hours
Description: Erythromycin A was used for this purpose.
After incubation, each disk is read.

## CC[C@H]1OC(=O)[C@H](C)[C@@H](O[C@H]2C[C@@](C)(OC)[C@@H](O)[C@H](C)O2)[C@H](C)[C@@H](O[C@@H]2O[C@H](C)C[C@H](N(C)C)[C@H]2O)[C@](C)(O)C[C@@H](C)C(=O)[C@H](C)[C@@H](O)[C@]1(C)O [Erythromycin A]
Ent. aerogenes; Klebsiella aerogenes, ATCC10348
  MIC: 100 µg/mL (≈ 136 µM)
Ent. aerogenes; Klebsiella aerogenes, ATCC13048, strain ATCC 13048, BHI agar, 20-24 hours, read-out: MIC
  MIC: 50 µg/mL (≈ 68.1 µM)
Ent. aerogenes; strain ATCC 10348, BHI agar, 20-24 hours
  MIC: 50 µg/mL (≈ 68.1 µM)
Micrococcus luteus
  MIC: 0.1 µg/mL (≈ 0.136 µM)
Strep. faecalis; strain CMX 663F
  MIC: 2 µg/mL (≈ 2.73 µM)
Strep. faecalis; strain CMX 729G
  MIC: 0.5 µg/mL (≈ 0.681 µM)
Strep. faecalis; strain CMX 736F
  MIC: 0.5 µg/mL (≈ 0.681 µM)
Strep. faecalis; strain GYR 1164
  MIC: 0.5 µg/mL (≈ 0.681 µM)
Strep. faecalis; strain GYR 1166
  MIC: 0.5 µg/mL (≈ 0.681 µM)
Strep. faecalis; strain GYR 1167
  MIC: 4 µg/mL (≈ 5.45 µM)
Providencia stuartii
  MIC: > 100 µg/mL
Providencia stuartii; read-out: MIC
  MIC: > 200 µg/mL
Staph. aureus; ATCC6538P, strain ATCC 6538P, read-out: MIC
  MIC: 0.12 µg/mL (≈ 0.164 µM)
Staph. aureus; ATCC25923, strain ATCC 25923, read-out: MIC
  MIC: 0.06 µg/mL (≈ 0.0818 µM)
Staph. aureus; NCTC10649, strain NCTC 10649, read-out: MIC
  MIC: 0.06 µg/mL (≈ 0.0818 µM)
Staph. aureus; strain 45 RAR 2
  MIC: 0.2 µg/mL (≈ 0.273 µM)
Staph. aureus; strain 642A, read-out: MIC
  MIC: 0.12 µg/mL (≈ 0.164 µM)
Staph. aureus; strain A5177, read-out: MIC
  MIC: 0.78 µg/mL (≈ 1.06 µM)
Staph. aureus; strain CMX 686B, read-out: MIC
  MIC: 0.12 µg/mL (≈ 0.164 µM)
Staph. aureus; strain CMX 705, read-out: MIC
  MIC: 0.06 µg/mL (≈ 0.0818 µM)
Staph. aureus; strain CMX 730A, read-out: MIC
  MIC: 0.06 µg/mL (≈ 0.0818 µM)
Staph. aureus; strain CMX 739A, read-out: MIC
  MIC: 0.06 µg/mL (≈ 0.0818 µM)
Staph. aureus; strain GYR 1150, read-out: MIC
  MIC: 0.06 µg/mL (≈ 0.0818 µM)
Staph. aureus; strain GYR 1162, read-out: MIC
  MIC: 0.06 µg/mL (≈ 0.0818 µM)
Strep. pyogenes; Streptococcus pyogenes, strain 930, read-out: MIC
  MIC: > 200 µg/mL
Strep. pyogenes; Streptococcus pyogenes, strain C203, read-out: MIC
  MIC: 0.002 µg/mL (≈ 0.00273 µM)
Strep. pyogenes; Streptococcus pyogenes, strain EES61, read-out: MIC
  MIC: 0.06 µg/mL (≈ 0.0818 µM)
Strep. pyogenes; Streptococcus pyogenes, strain M79061-98
  MIC: 1 µg/mL (≈ 1.36 µM)
Strep. pyogenes; Streptococcus pyogenes, strain M79061-139, read-out: MIC
  MIC: 0.015 µg/mL (≈ 0.0204 µM)
Strep. pyogenes; Streptococcus pyogenes, strain M79061-140, read-out: MIC
  MIC: 0.008 µg/mL (≈ 0.0109 µM)
Strep. pyogenes; strain 930
  MIC: > 100 µg/mL
Pseudomonas aeruginosa; Pseudomonas aeruginosa, strain 5007
  MIC: 200 µg/mL (≈ 273 µM)
Pseudomonas aeruginosa; Pseudomonas aeruginosa, strain BMH10
  MIC: 100 µg/mL (≈ 136 µM)
Pseudomonas aeruginosa; Pseudomonas aeruginosa, strain K799/61
  MIC: 1.56 µg/mL (≈ 2.13 µM)
Pseudomonas aeruginosa; Pseudomonas aeruginosa, strain K799/WT
  MIC: 200 µg/mL (≈ 273 µM)
Pseudomonas aeruginosa; strain 5007
  MIC: > 100 µg/mL
Pseudomonas aeruginosa; strain K799/WT
  MIC: > 100 µg/mL and 100 µg/mL
Strep. faecium; ATCC8043, strain ATCC 8043
  MIC: 0.1 µg/mL (≈ 0.136 µM)
Strep. faecium; ATCC8043, strain ATCC 8043, read-out: MIC
  MIC: 0.06 µg/mL (≈ 0.0818 µM)
Strep. bovis
  MIC: 0.01 µg/mL (≈ 0.0136 µM)
Strep. agalactiae
  MIC: 0.015 µg/mL (≈ 0.0204 µM)
Staph. epidermidis; strain 3519, read-out: MIC
  MIC: 0.21 µg/mL (≈ 0.286 µM)
Staph. epidermidis; strain 3519 RARI
  MIC: 0.2 µg/mL (≈ 0.273 µM)
Staph. epidermidis; strain CMX 728, read-out: MIC
  MIC: 0.06 µg/mL (≈ 0.0818 µM)
Staph. epidermidis; strain GYR 1151, read-out: MIC
  MIC: 0.12 µg/mL (≈ 0.164 µM)
Strep. pneumoniae; strain 78-008107
  MIC: 32 µg/mL (≈ 43.6 µM)
Strep. pneumoniae; strain CMX 635, read-out: MIC
  MIC: 0.015 µg/mL (≈ 0.0204 µM)
Strep. pneumoniae; strain CMX 698, read-out: MIC
  MIC: 0.008 µg/mL (≈ 0.0109 µM)
Klebsiella pneumoniae
  MIC: 50 µg/mL (≈ 68.1 µM)
Staph. saprophyticus
  MIC: 0.03 µg/mL (≈ 0.0409 µM)
Staph. aureus NCTC 10649; po, dosage medium Carboxymethylcellulose
  ED50: 48.8 mg/kg
Staph. aureus NCTC 10649; po, dosage medium PBS
  ED50: 75.7 mg/kg
Staph. aureus NCTC 10649; sc, subcutaneous, dosage medium Injectable solution
  ED50: 10.9 mg/kg
Staph. aureus NCTC 10649; oral, Carboxymethylcellulose, 15.6 mg/kg
  # Died: 8
Staph. aureus NCTC 10649; oral, Carboxymethylcellulose, 37.5 mg/kg
  # Died: 5
Staph. aureus NCTC 10649; oral, Carboxymethylcellulose, 250.0 mg/kg
  # Died: 0
Staph. aureus NCTC 10649; oral, PBS, 15.6 mg/kg
  # Died: 10
Staph. aureus NCTC 10649; oral, PBS, 37.5 mg/kg
  # Died: 4
Staph. aureus NCTC 10649; oral, PBS, 250.0 mg/kg
  # Died: 0
Staph. aureus NCTC 10649; subcutaneous, Injectable solution, 2.5 mg/kg
  # Died: 10
Staph. aureus NCTC 10649; subcutaneous, Injectable solution, 10.0 mg/kg
  # Died: 6
Staph. aureus NCTC 10649; subcutaneous, Injectable solution, 40.0 mg/kg
  # Died: 0
Pseudomonas cepacia; Burkholderia cepacia, read-out: MIC
  MIC: 200 µg/mL (≈ 273 µM)
Pseudomonas cepacia
  MIC: > 100 µg/mL
